For one compound, IC50 results are on record in patent US20110038835A1, “ANILIDES AND ANALOGS AS RHO KINASE INHIBITORS” (The Scripps Research Institute, priority 2007, published 2011).

As usually defined, the IC50 is the point on the concentration scale where inhibition reaches its midpoint. The low end stands for inhibition by little substance, the high end for a need for much substance.

For one assay, the target named is ROCK-II (1-543) (UniProt Q62868). The assay is described as follows: Enzymatic Rho kinase assay (Kinase-Glo, S6-peptide phosphorylation). Type of assay: biochemical. The settings on record: 20 μM ATP, 20 μM S6-peptide, 50 min at RT. Here is the method:
Enzymatic Rho Kinase (ROCK I and ROCK II) Assays.
The assay is based on ability of Rhok2 to phosphorylate a specific peptide sequence derived from its substrate—ribosomal protein S6 (amino acid residues 229-239). Rhok2 uses ATP as a donor of phosphate for the phosphorylation of the substrate, which leads to the depletion of ATP in the reaction mix. An assay kit (“Kinase-Glo”, Promega) was used to quantify enzyme activity. Using this kit, residual amounts of ATP are measured by a secondary enzymatic reaction, through which luciferase utilizes the remaining ATP to produce luminescence. Luminescent signal is directly proportional to ATP concentration and inversely proportional to Rhok2 activity.
This dose response assay was conducted in 1536 well plate format. Each concentration was tested nominally in triplicate. Protocol Summary: A 5 μL mixture of a 20 μM S6-peptide (LCB-[…]-NH2) and 20 μM ATP in Kinase buffer (50 mM Hepes pH 7.3, 10 mM MgCl2, 0.1% BSA, and 2 mM DTT) was added to the well of a plate. 20 nL of 90% DMSO/10% water containing the compound(s) to be tested (or no compound for control wells) was added. The reaction was initiated by addition of 5 μL of 8 nM ROCK-II (1-543) in Kinase buffer. […] The plate was read after 10 min incubation time at RT on the Viewlux in luminescence mode.

In a further assay the test system is A7r5 cells. The assay is described as follows: Myosin light chain double phosphorylation assay (ppMLC cell assay). Type of assay: cell-based. The note with it: inhibitor 1 h, 10 μM LPA for 10 min. Here is the method: Myosin Light Chain Double Phosphorylation Assays (ppMLC Cell Assay).
A7r5 cells were plated at 5000 cells/well in a 96 well Packard View Plate (Perkin Elmer) in DMEM +10% FBS. After attachment overnight, cells were serum starved for 4 h and treated with inhibitor in 0.25% DMSO final concentration for 1 h at 37° C. Cells were then treated with 10 μM lysophosphatitic acid (LPA) for 10 min. Following treatment, cells were immediately fixed with 4% paraformaldehyde for 30 minutes. After a brief wash in 0.1 M glycine, cells were permeablized in 0.2% Triton X for 10 minutes. Cells were then washed once in PBS and blocked in Li-COR blocking buffer (Li-COR Biosciences) for 1 h at 25 C. Cells were probed for either phosphorylated myosin light chain 20 (55 ng/mL), total myosin light chain (525 ng/mL) or anti-bovine α-tubulin (1 μg/mL), and incubated overnight at 4° C. Following three washes, cells were probed with goat-anti-rabbit or goat-anti-mouse IR800 (2 μg/mL in LI-COR block +0.025% Tween) for 1 h at 25° C. Nuclei were stained with TO-PRO-3 iodide (642/661) (1:4000) for 20 min, washed twice in PBS/0.05% Tween and read with an Odyssey Infrared Imaging System (LI-COR Biosciences).

In another assay the test system is N2a cells. The assay is described as follows: Neurite length assay (N2a cell assay). The format is cell-based. The note with it: Mus musculus, compound 1 h, neurite retraction induced by 5 uM LPA. The method, then: Neurite Length Assay (N2a, Cell Assay).
N2a cells are maintained in DMEM/FBS at 37 C and 5% CO2. For the experiment the cells were plated on a poly-D-lysine coated 96-well tissue culture plate. After attachment, cell differentiation was induced for 2 days by addition of 10 uM retinoic acid. Cells were treated for 1 h with a dilution of compounds in 0.3% DMSO final concentration before neurite retraction was induced by 5 uM LPA. Cells were stained for tubulin and nuclei and images were acquired on a INCell 1000 workstation. Images were analyzed using the developer toolbox and neurite length was quantitated.

For the compound `CN(C)CCOc1cc(-c2cn[nH]c2)c(F)cc1NC(=O)[C@H](N)c1ccc(F)cc1` [Example 26, (R)-2-amino-N-(2-(2-(dimethylamino)ethoxy)-5-fluoro-4-(1H-pyrazol-4-yl)phenyl)-2-(4-fluorophenyl)acetamide], the figures for the half-inhibitory concentration (IC50) on ROCK-II (1-543), in the assay with A7r5 cells and in the assay with N2a cells were 19 nM, 110 nM and 18 nM, respectively.
